Here are results for one compound from ChEMBL document CHEMBL3396964, “SAH derived potent and selective EZH2 inhibitors” (Bioorg Med Chem Lett, 2015).

Structures are written as SMILES. Calls of active or inactive are those of the source. The rule behind the calls is not given here.

In data set [1] the target is Histone-lysine N-methyltransferase EZH2 (Homo sapiens, UniProt O75530+Q09028+Q15022+Q15910). Kind of data set: Inhibition of N-terminally FLAG-tagged wild type EZH2 in EZH2/SUZ12/EED/RbAp48 complex (unknown origin) expressed in baculovirus infected in SF9 cells assessed as inhibition of methylation of nucleosomes at H3K27 by scintillation counting in presence of [3H]SAM.

The target of data set [2] is Histone-lysine N-methyltransferase EZH2 (Homo sapiens, UniProt O75530+Q09028+Q15022+Q15910, Y641N). The data set is described as follows: Inhibition of N-terminally FLAG-tagged EZH2 Y641N mutant in EZH2/SUZ12/EED/RbAp48 complex (unknown origin) expressed in baculovirus infected in SF9 cells assessed as inhibition of methylation of nucleosomes at H3K27 by scintillation counting in presence of [3H]SAM.

The nature of data set [3]: Permeability across MDCK2 cells. In kind it is ADME, cell-based, Canis lupus familiaris, MDCK-II. To be noted: dog, MDCK; read-out: permeability.
Data set [4] addresses T1, Histone-lysine N-methyltransferase EZH1 (Homo sapiens, UniProt Q92800).
T1 sequence (Q92800 whole entry): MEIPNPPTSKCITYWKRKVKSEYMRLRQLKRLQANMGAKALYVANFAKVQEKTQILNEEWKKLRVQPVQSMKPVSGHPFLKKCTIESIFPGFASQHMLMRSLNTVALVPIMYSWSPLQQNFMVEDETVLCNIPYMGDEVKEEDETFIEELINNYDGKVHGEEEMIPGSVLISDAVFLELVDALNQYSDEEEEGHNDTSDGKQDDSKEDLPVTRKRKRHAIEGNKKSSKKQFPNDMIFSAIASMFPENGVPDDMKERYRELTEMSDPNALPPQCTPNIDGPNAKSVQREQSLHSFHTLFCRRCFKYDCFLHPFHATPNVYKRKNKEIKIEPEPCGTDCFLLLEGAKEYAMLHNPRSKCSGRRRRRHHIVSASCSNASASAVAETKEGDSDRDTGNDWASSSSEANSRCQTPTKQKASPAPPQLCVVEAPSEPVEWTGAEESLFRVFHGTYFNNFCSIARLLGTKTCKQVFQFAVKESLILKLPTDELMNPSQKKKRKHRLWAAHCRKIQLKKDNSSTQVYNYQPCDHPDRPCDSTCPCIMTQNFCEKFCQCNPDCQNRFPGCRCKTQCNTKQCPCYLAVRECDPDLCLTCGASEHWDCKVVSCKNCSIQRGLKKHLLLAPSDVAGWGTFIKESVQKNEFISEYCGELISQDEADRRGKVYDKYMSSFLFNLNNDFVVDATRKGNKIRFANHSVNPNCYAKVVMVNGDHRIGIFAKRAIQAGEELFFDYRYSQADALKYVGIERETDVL
The data set is described as follows: Inhibition of EZH1 (unknown origin) by HMT assay.

Data set [5] has as its target Histone-lysine N-methyltransferase 2A (Homo sapiens, UniProt Q03164). Kind of data set: Inhibition of MLL (unknown origin) by HMT assay.
Data set [6] has as its target T2, Histone-lysine N-methyltransferase SUV39H1 (Homo sapiens, UniProt O43463).
T2 sequence (O43463 whole entry): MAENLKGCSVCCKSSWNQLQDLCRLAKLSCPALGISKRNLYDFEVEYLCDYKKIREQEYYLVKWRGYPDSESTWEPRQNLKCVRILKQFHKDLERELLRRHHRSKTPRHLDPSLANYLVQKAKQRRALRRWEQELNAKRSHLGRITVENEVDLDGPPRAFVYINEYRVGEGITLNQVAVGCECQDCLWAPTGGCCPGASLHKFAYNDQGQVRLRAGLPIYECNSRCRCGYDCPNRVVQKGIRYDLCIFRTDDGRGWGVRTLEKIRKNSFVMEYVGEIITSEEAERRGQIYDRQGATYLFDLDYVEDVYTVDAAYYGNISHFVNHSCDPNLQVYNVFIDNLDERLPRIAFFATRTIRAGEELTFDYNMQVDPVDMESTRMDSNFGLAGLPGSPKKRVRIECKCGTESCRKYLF
Kind of data set: Inhibition of SUV39H1 (unknown origin) by HMT assay.

Data set [7] concerns the target T3, Histone-lysine N-methyltransferase KMT5C (Homo sapiens, UniProt Q86Y97). Kind of data set: Inhibition of SUV420H2 (unknown origin) by HMT assay.
Target sequence in this assay (Q86Y97 whole entry): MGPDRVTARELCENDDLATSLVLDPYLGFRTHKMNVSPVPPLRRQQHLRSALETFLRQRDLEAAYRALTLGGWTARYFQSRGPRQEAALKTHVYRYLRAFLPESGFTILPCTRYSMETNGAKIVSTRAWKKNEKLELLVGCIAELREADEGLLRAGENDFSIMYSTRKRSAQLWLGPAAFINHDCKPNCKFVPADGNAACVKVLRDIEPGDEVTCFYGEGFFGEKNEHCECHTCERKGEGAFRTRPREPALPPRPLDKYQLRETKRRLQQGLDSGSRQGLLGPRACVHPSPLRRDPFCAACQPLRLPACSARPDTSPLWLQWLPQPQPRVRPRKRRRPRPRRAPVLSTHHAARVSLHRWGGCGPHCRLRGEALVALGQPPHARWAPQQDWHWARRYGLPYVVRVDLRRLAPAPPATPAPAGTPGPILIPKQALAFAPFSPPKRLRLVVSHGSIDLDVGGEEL
Data set [8] concerns the target N-lysine methyltransferase SMYD2 (Homo sapiens, UniProt Q9NRG4). Kind of data set: Inhibition of SMYD2 (unknown origin) at 10 uM by HMT assay.
For data set [9], the target named is Histone-lysine N-methyltransferase SETDB1 (Homo sapiens, UniProt Q15047). Conditions: 10 uM.
Description: Inhibition of SETDB1 (unknown origin) at 10 uM by HMT assay
The target of data set [10] is T3, Histone-lysine N-methyltransferase KMT5C. Conditions: 10 uM.
Target sequence in this assay (Q86Y97 whole entry, looked up): as the sequence (Q86Y97 whole entry) above
Description: Inhibition of SUV420H2 (unknown origin) at 10 uM by HMT assay

Sequence of Histone-lysine N-methyltransferase EZH2 (Homo sapiens, UniProt O75530+Q09028+Q15022+Q15910) (Q15910 whole entry, one chain of several): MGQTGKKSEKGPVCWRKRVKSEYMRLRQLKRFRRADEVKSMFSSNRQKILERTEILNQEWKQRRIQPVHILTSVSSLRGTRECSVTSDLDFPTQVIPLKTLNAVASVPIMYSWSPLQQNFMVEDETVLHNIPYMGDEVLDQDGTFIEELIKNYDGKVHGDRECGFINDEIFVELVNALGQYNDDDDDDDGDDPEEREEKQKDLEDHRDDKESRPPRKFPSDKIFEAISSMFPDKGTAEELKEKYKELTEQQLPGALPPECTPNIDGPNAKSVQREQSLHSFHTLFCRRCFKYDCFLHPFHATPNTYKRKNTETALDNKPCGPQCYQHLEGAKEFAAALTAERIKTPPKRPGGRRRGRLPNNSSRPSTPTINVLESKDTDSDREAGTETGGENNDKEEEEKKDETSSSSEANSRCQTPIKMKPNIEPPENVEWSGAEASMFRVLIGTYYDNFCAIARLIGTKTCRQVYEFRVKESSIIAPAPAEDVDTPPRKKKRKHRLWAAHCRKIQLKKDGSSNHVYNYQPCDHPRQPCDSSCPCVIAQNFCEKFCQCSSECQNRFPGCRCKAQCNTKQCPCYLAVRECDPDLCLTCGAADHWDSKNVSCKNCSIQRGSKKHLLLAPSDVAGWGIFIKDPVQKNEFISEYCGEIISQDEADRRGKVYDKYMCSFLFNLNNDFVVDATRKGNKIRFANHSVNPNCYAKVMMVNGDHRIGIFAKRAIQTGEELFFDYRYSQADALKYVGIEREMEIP
Sequence of Histone-lysine N-methyltransferase EZH2 (Homo sapiens, UniProt O75530+Q09028+Q15022+Q15910, Y641N) (Q15910 whole entry Y641N, one chain of several): as the sequence (Q15910 whole entry, one chain of several) above, with Y641N counted along it
Sequence of N-lysine methyltransferase SMYD2 (Q9NRG4 whole entry): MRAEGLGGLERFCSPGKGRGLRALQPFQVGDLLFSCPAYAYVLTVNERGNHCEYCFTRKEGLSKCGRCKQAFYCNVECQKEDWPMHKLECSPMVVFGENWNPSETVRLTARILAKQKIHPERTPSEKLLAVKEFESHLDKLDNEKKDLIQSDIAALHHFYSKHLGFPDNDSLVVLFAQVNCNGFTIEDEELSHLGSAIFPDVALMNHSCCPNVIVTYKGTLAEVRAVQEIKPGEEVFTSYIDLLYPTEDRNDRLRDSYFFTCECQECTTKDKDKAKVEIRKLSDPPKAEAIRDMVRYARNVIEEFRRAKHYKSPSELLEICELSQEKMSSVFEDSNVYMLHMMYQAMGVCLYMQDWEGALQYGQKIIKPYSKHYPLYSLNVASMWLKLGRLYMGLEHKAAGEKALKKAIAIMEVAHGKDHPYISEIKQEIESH

As a reminder, the IC50 is the concentration that inhibits the measured activity by half. Regarding `Nc1ncnc2c1ncn2[C@@H]1O[C@H](CSCC[C@H](N)C(=O)NCc2cc(-c3ccccc3)[nH]n2)[C@@H](O)[C@H]1O`, the IC50 was 0.27 µM in [1]; 0.07 µM in data set [2]; 2.1 µM in data set [4]; 18.5 µM in data set [5]; 9.5 µM in [6]; above 100 µM in data set [7]. Moreover, the Papp in data set [3] worked out at 1 ×10⁻⁶ cm/s. In addition, the inhibition entry in [8], in data set [9] and in [10] was “inactive” each time.
